For one assay, the target named is Pim-3 (Homo sapiens (Human), UniProt Q86V86). As to the kind of experiment: Pim-3 kinase assay (Pim enzyme assays, Example A). The class given is biochemical. The following applies: 1 mM ATP, BAD peptide substrate; read-out: PIM3 IC50. The procedure:
(§1) Pim-1 and Pim-3 kinase assays-20 μL reactions were run in white 384 well polystyrene plates dotted with 0.8 μL compound/DMSO in the assay buffer (50 mM Tris, pH 7.5, 0.01% Tween-20, 5 mM mgCl2, 0.01% BSA, 5 mM DTT), containing 0.05 μM Biotin-labeled BAD peptide substrate (AnaSpec 62269), 1 mM ATP, and 2.5 pM (Pim-1, Invitrogen PV3503) or 1.25 pM (Pim-3, Millipore 14-738) enzyme for 1 h at 25° C. Reactions were stopped by addition of 10 μL STOP Buffer (150 mM Tris, pH=7.5, 150 mM NaCl, 75 mM EDTA, 0.01% Tween-20, 0.3% BSA,) supplemented with Phospho-Bad (Ser112) Antibody (Cell Signaling 9291) diluted 666-fold, and Streptavidin donor beads (PerkinElmer 6760002) along with Protein-A acceptor beads (PerkinElmer 6760137) at 15 μg/mL each. Supplementation of the STOP buffer with beads and stopping the reactions were done under reduced light. Prior to the stopping reactions STOP buffer with beads was preincubated for 1 h in the dark at room temperature. After stopping the reactions, plates were incubated for 1 h in the dark at room temperature before reading on a PHERAstar FS plate reader (BMG Labtech) under reduced light.

The target of another assay is Pim-1 (Homo sapiens (Human), UniProt P11309). As to the kind of experiment: Pim-1 kinase assay (Pim enzyme assays, Example A). The assay is classed as biochemical. The following applies: 1 mM ATP, BAD peptide substrate; read-out: PIM1 IC50. The procedure:
as §1

In another assay the target is Pim-2 (Homo sapiens (Human), UniProt Q9P1W9). As to the kind of experiment: Pim-2 kinase assay (Pim enzyme assays, Example A). The class given is biochemical. The conditions noted are these: 1 mM ATP, CREBtide peptide substrate; read-out: PIM2 IC50. The procedure:
Pim-2 kinase assay-20 μL reactions were run in white 384 well polystyrene plates dotted with 0.8 μL compound/DMSO in the assay buffer (50 mM Tris, pH 7.5, 0.01% Tween-20, 5 mM mgCl2, 0.01% BSA, 5 mM DTT), containing 0.05 μM Fluorescein-labeled CREBtide peptide substrate (Invitrogen PV3508), 1 mM ATP, and 1 nM enzyme (Invitrogen PV3649) for 2 h at 25° C. Reactions were stopped by addition of 10 μL TR-FRET Dilution Buffer (Invitrogen PV3574) with 30 mM EDTA and 1.5 nM LanthaScreen Tb-CREB pSer133 antibody (Invitrogen PV3566). After 30 min. incubation at room temperature, plates were read on a PHERAstar FS plate reader (BMG Labtech).

A further assay has as its system pBAD in KMS.12.BM cells. As to the kind of experiment: Pim pBAD signaling assay in KMS.12.BM cells (Example B). The following applies: Homo sapiens, 2.5 h incubation, pBAD ELISA. The assay is classed as cell-based. The protocol:
KG-1A cells are purchased from ATCC (Manassas, Va.) and KMS.12.BM cells are purchased from NIBIO, JCRB cell bank (Tokyo, Japan) and maintained in the culture mediums recommended, RPMI, 10% FBS and IMDM 20% FBS (Mediatech, Manassas, Va.) respectively. To measure the pBAD inhibitory activity of the compounds, both cell lines are plated with the culture medium (1×10^6/well/100 μL for KG1A and 4×10^5 cells/well/in 100 μL for KMS12BM) into 96-well V bottom polypropylene plates (Matrix, Thermo Fisher, USA) and incubated 30 min. at 37° C. to normalize cell signaling from handling. Test compounds are added at an appropriate concentration range and further incubated for 2.5 h for KMS.12.BM cells and 4 h for KG1-A cells. Plates are centrifuged at 2000 RPM for 10 min. and supernatants aspirated. 100 μL lysis buffer with protease inhibitors (Cell Signaling Technologies, Danver, Mass., Sigma, St Louis Mo., EMD, USA) is added to the pellets, mixed well and set on ice for 30 min. Lysates are frozen overnight at −80° C. To measure the pBAD activity, a Cell Signaling ELISA kit (Cell Signaling Path Scan phosphor pBAD ELISA) is utilized. 50 μL of the lysate is tested per the ELISA protocol and the data analysis is performed by software on a SpectrMax5 plate reader (Molecular Devices, Sunnyvale, Calif.). IC50 determination is performed by fitting the curve of percent inhibition versus the log of the inhibitor concentration using the GraphPad Prism 5.0 software.
On the technique in general: ELISA stands for enzyme-linked immunosorbent assay.

Sequence of Pim-2 (Q9P1W9 whole entry): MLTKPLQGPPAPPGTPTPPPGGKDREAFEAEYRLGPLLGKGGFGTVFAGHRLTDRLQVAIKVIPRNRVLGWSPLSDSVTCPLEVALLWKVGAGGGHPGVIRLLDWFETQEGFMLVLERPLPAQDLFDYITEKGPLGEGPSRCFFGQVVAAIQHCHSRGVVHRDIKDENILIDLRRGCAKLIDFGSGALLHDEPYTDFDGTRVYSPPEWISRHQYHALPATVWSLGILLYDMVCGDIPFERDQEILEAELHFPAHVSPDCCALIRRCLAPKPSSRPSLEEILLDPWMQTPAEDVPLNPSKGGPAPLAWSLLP
Sequence of Pim-1 (P11309 whole entry): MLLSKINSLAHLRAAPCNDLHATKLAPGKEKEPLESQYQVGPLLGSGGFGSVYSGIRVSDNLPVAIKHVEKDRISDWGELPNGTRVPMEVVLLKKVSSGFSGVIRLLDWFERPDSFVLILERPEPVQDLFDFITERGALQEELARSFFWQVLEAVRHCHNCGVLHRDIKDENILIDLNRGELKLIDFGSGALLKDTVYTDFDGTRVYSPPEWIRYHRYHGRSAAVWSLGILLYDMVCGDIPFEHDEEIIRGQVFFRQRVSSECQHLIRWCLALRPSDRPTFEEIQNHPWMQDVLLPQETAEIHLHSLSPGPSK

Usually IC50 stands for the concentration that gives 50% inhibition. As to `C[C@@H]1C[C@H](N)CN(c2ccncc2NC(=O)c2ccc3ccc(N4CCCC4)cc3n2)C1` [Example 31, N-{4-[(3S,5R)-3-Amino-5-methylpiperidin-1-yl]pyridin-3-yl}-7-pyrrolidin-1-ylquinoline-2-carboxamide], the IC50 at Pim-3 is ≤ 10 nM; on Pim-1, ≤ 10 nM; on Pim-2, 100 to 1000 nM; in the assay with pBAD in KMS.12.BM cells, 50 to 250 nM.
With `C[C@@H]1C[C@H](N)CN(c2ccncc2NC(=O)c2ccc3ccc(N4CCC4)cc3n2)C1` [Example 34, N-{4-[(3S,5R)-3-Amino-5-methylpiperidin-1-yl]pyridin-3-yl}-7-azetidin-1-ylquinoline-2-carboxamide], the concentration for half-maximal inhibition (IC50) on Pim-3 is ≤ 10 nM; at Pim-1, ≤ 10 nM; on Pim-2, ≤ 100 nM; in the assay with pBAD in KMS.12.BM cells, 50 to 250 nM.
Turning to `COc1cc(F)c(-c2cnc3ccc(C(=O)Nc4cnccc4N4C[C@@H](N)[C@H](O)[C@@H](C5CC5)C4)nc3c2)c(F)c1` [Example 35, N-{4-[(3R,4R,5S)-3-Amino-5-cyclopropyl-4-hydroxypiperidin-1-yl]pyridin-3-yl}-7-(2,6-difluoro-4-methoxyphenyl)-1,5-naphthyridine-2-carboxamide], the half-maximal inhibitory concentration (IC50) on Pim-3 was ≤ 10 nM; on Pim-1, ≤ 10 nM; on Pim-2 it was ≤ 100 nM; with pBAD in KMS.12.BM cells, ≤ 50 nM.
As for `COc1ccc(-c2cnc3ccc(C(=O)Nc4cnccc4N4C[C@@H](N)[C@H](O)[C@@H](C5CC5)C4)nc3c2)cn1` [Example 36, N-{4-[(3R,4R,5S)-3-Amino-5-cyclopropyl-4-hydroxypiperidin-1-yl]pyridin-3-yl}-7-(6-methoxypyridin-3-yl)-1,5-naphthyridine-2-carboxamide], the IC50 on Pim-3 is ≤ 10 nM; on Pim-1, ≤ 10 nM; at Pim-2 it was ≤ 100 nM; with pBAD in KMS.12.BM cells, ≤ 50 nM.
Regarding `N[C@@H]1CN(c2ccncc2NC(=O)c2ccc3ncc(-c4ccc(N5CCOCC5)nc4)cc3n2)C[C@H](C2CC2)[C@H]1O` [Example 37, N-{4-[(3R,4R,5S)-3-Amino-5-cyclopropyl-4-hydroxypiperidin-1-yl]pyridin-3-yl}-7-(6-morpholin-4-ylpyridin-3-yl)-1,5-naphthyridine-2-carboxamide], the IC50 on Pim-3 was ≤ 10 nM; at Pim-1, ≤ 10 nM; on Pim-2, ≤ 100 nM; with pBAD in KMS.12.BM cells, ≤ 50 nM.
On to `CCn1cc(-c2cnc3ccc(C(=O)Nc4cnccc4N4C[C@@H](N)[C@H](O)[C@@H](C5CC5)C4)nc3c2)cn1` [Example 38, N-{4-[(3R,4R,5S)-3-Amino-5-cyclopropyl-4-hydroxypiperidin-1-yl]pyridin-3-yl}-7-(1-ethyl-1H-pyrazol-4-yl)-1,5-naphthyridine-2-carboxamide], for which the 50% inhibitory concentration (IC50) was ≤ 10 nM on Pim-3, ≤ 10 nM on Pim-1, ≤ 100 nM on Pim-2 and ≤ 50 nM with pBAD in KMS.12.BM cells.
For the molecule `Cn1cc(-c2cnc3ccc(C(=O)Nc4cnccc4N4C[C@@H](N)[C@H](O)[C@@H](C5CC5)C4)nc3c2)cn1` [Example 39, N-{4-[(3R,4R,5S)-3-Amino-5-cyclopropyl-4-hydroxypiperidin-1-yl]pyridin-3-yl}-7-(1-methyl-1H-pyrazol-4-yl)-1,5-naphthyridine-2-carboxamide], the IC50 at Pim-3 is ≤ 10 nM; at Pim-1, ≤ 10 nM; on Pim-2, ≤ 100 nM; with pBAD in KMS.12.BM cells it was 50 to 250 nM.
Turning to `N#CC1CCN(c2cnc3ccc(C(=O)Nc4cnccc4N4C[C@@H](N)[C@H](O)[C@@H](C5CC5)C4)nc3c2)CC1` [Example 41, N-{4-[(3R,4R,5S)-3-Amino-5-cyclopropyl-4-hydroxypiperidin-1-yl]pyridin-3-yl}-7-(4-cyanopiperidin-1-yl)-1,5-naphthyridine-2-carboxamide], the IC50 on Pim-3 was in the range of 10 to 50 nM; at Pim-1, 10 to 50 nM; on Pim-2, 1000 to 10000 nM; in the assay on pBAD in KMS.12.BM cells it was 50 to 250 nM.
Consider `N[C@@H]1CN(c2ccncc2NC(=O)c2ccc3ncc(N4CCC5(CCCO5)CC4)cc3n2)C[C@H](C2CC2)[C@H]1O` [Example 42, N-{4-[(3R,4R,5S)-3-Amino-5-cyclopropyl-4-hydroxypiperidin-1-yl]pyridin-3-yl}-7-(1-oxa-8-azaspiro[4.5]dec-8-yl)-1,5-naphthyridine-2-carboxamide], for which the IC50 was ≤ 10 nM on Pim-3, ≤ 10 nM on Pim-1, 100 to 1000 nM on Pim-2 and 50 to 250 nM in the assay on pBAD in KMS.12.BM cells.
As to `C[C@H]1CN(c2ccncc2NC(=O)c2ccc3ccc(-c4cnn(C)c4)cc3n2)C[C@@H](N)[C@@H]1O` [Example 43, N-{4-[(3R,4R,5S)-3-Amino-4-hydroxy-5-methylpiperidin-1-yl]pyridin-3-yl}-7-(1-methyl-1H-pyrazol-4-yl)quinoline-2-carboxamide], the half-maximal inhibitory concentration (IC50) is ≤ 10 nM at Pim-3, ≤ 10 nM at Pim-1, ≤ 100 nM on Pim-2 and ≤ 50 nM in the assay on pBAD in KMS.12.BM cells.
As for `CCn1cc(-c2ccc3ccc(C(=O)Nc4cnccc4N4C[C@@H](N)[C@H](O)[C@@H](C)C4)nc3c2)cn1` [Example 44, N-{4-[(3R,4R,5S)-3-Amino-4-hydroxy-5-methylpiperidin-1-yl]pyridin-3-yl}-7-(1-ethyl-1H-pyrazol-4-yl)quinoline-2-carboxamide], the IC50 at Pim-3 is ≤ 10 nM; at Pim-1, ≤ 10 nM; on Pim-2 it was ≤ 100 nM; in the assay with pBAD in KMS.12.BM cells, ≤ 50 nM.
Regarding `COc1ccc(-c2ccc3ccc(C(=O)Nc4cnccc4N4C[C@@H](N)[C@H](O)[C@@H](C)C4)nc3c2)cn1` [Example 45, N-{4-[(3R,4R,5S)-3-Amino-4-hydroxy-5-methylpiperidin-1-yl]pyridin-3-yl}-7-(6-methoxypyridin-3-yl)quinoline-2-carboxamide], the 50% inhibitory concentration (IC50) at Pim-3 was ≤ 10 nM; at Pim-1, ≤ 10 nM; on Pim-2 it was ≤ 100 nM; in the assay with pBAD in KMS.12.BM cells it was ≤ 50 nM.
Consider `C[C@H]1CN(c2ccncc2NC(=O)c2ccc3ccc(-c4ccc(N5CCOCC5)nc4)cc3n2)C[C@@H](N)[C@@H]1O` [Example 46, N-{4-[(3R,4R,5S)-3-Amino-4-hydroxy-5-methylpiperidin-1-yl]pyridin-3-yl}-7-(6-morpholin-4-ylpyridin-3-yl)quinoline-2-carboxamide], for which the half-maximal inhibitory concentration (IC50) on Pim-3 was ≤ 10 nM; at Pim-1, ≤ 10 nM; at Pim-2 it was ≤ 100 nM; with pBAD in KMS.12.BM cells, ≤ 50 nM.
On to `C[C@H]1CN(c2ccncc2NC(=O)c2ccc3ccc(-c4cccnc4)cc3n2)C[C@@H](N)[C@@H]1O` [Example 47, N-(4-((3R,4R,5S)-3-Amino-4-hydroxy-5-methylpiperidin-1-yl)pyridin-3-yl)-7-(pyridin-3-yl)quinoline-2-carboxamide], for which the half-inhibitory concentration (IC50) on Pim-3 was ≤ 10 nM; on Pim-1, ≤ 10 nM; on Pim-2, ≤ 100 nM; in the assay with pBAD in KMS.12.BM cells, ≤ 50 nM.
For the molecule `C[C@@H]1C[C@H](N)CN(c2ccncc2NC(=O)c2ccc3ccc(-c4cnn(C)c4)cc3n2)C1` [Example 48, N-{4-[(3S,5R)-3-amino-5-methylpiperidin-1-yl]pyridin-3-yl}-7-(1-methyl-1H-pyrazol-4-yl)quinoline-2-carboxamide], the IC50 at Pim-3 was ≤ 10 nM; on Pim-1, ≤ 10 nM; at Pim-2 it was ≤ 100 nM; with pBAD in KMS.12.BM cells, ≤ 50 nM.

The values above are taken from US9580418B2, “Bicyclic aromatic carboxamide compounds useful as Pim kinase inhibitors” (Incyte Corporation, priority 2014, dated 2017).
